≈ marks a conversion by molar mass, not a printed value.
Key:
Escherichia coli [1] = test: Antibacterial activity against Escherichia coli clinical isolate ECJH11 assessed as diameter of zone of inhibition by disk diffusion assay; assay type: functional
Escherichia coli [2] = test: Antibacterial activity against Escherichia coli clinical isolate ECJH9 assessed as diameter of zone of inhibition by disk diffusion assay; assay type: functional
Escherichia coli [3] = test: Antibacterial activity against Escherichia coli clinical isolate ECJH23 assessed as diameter of zone of inhibition by disk diffusion assay; assay type: functional
Escherichia coli [4] = test: Antibacterial activity against Escherichia coli clinical isolate ECJH15 assessed as diameter of zone of inhibition by disk diffusion assay; assay type: functional
Escherichia coli [5] = test: Antibacterial activity against Escherichia coli clinical isolate ECJH2 assessed as diameter of zone of inhibition by disk diffusion assay; assay type: functional
Escherichia coli [6] = test: Antibacterial activity against Escherichia coli clinical isolate ECJH7 assessed as diameter of zone of inhibition by disk diffusion assay; assay type: functional
Escherichia coli [7] = test: Antibacterial activity against Escherichia coli clinical isolate ECJH17 assessed as diameter of zone of inhibition by disk diffusion assay; assay type: functional
Escherichia coli [8] = test: Antibacterial activity against Escherichia coli clinical isolate ECJH24 assessed as diameter of zone of inhibition by disk diffusion assay; assay type: functional
Escherichia coli [9] = test: Antibacterial activity against Escherichia coli clinical isolate ECJH21 assessed as diameter of zone of inhibition by disk diffusion assay; assay type: functional
Escherichia coli [10] = test: Antibacterial activity against Escherichia coli clinical isolate ECJH5 assessed as diameter of zone of inhibition by disk diffusion assay; assay type: functional
Escherichia coli [11] = test: Antibacterial activity against Escherichia coli clinical isolate ECJH25 assessed as diameter of zone of inhibition by disk diffusion assay; assay type: functional
Escherichia coli [12] = test: Antibacterial activity against Escherichia coli clinical isolate ECJH8 assessed as diameter of zone of inhibition by disk diffusion assay; assay type: functional
Escherichia coli [13] = test: Antibacterial activity against Escherichia coli clinical isolate ECJH18 assessed as diameter of zone of inhibition by disk diffusion assay; assay type: functional
Escherichia coli [14] = test: Antibacterial activity against Escherichia coli clinical isolate ECJH3 assessed as diameter of zone of inhibition by disk diffusion assay; assay type: functional
Escherichia coli [15] = test: Antibacterial activity against Escherichia coli clinical isolate ECJH6 assessed as diameter of zone of inhibition by disk diffusion assay; assay type: functional
Escherichia coli [16] = test: Antibacterial activity against Escherichia coli clinical isolate ECJH19 assessed as diameter of zone of inhibition by disk diffusion assay; assay type: functional
Escherichia coli [17] = test: Antibacterial activity against Escherichia coli clinical isolate ECJH16 assessed as diameter of zone of inhibition by disk diffusion assay; assay type: functional
Escherichia coli [18] = test: Antibacterial activity against Escherichia coli clinical isolate ECJH10 assessed as diameter of zone of inhibition by disk diffusion assay; assay type: functional
Staphylococcus aureus [19] = test: Antibacterial activity against Staphylococcus aureus MTCC 902 assessed as diameter of zone of inhibition at 500 ug/ml by agar disk diffusion method; assay type: functional; settings: read-out: DIZ
Escherichia coli [20] = test: Antibacterial activity against Escherichia coli MTCC 443 assessed as diameter of zone of inhibition at 500 ug/ml by agar disk diffusion method; assay type: functional; settings: read-out: DIZ
Staphylococcus aureus [21] = test: Bactericidal activity against Staphylococcus aureus MTCC 902 assessed as inhibition of bacterial growth incubated overnight; assay type: functional
Enterococcus faecalis [22] = test: Antibacterial activity against Enterococcus faecalis MTCC 439 assessed as inhibition of bacterial growth incubated overnight by serial dilution based spectrophotometer; assay type: functional
Pseudomonas aeruginosa [23] = test: Antibacterial activity against Pseudomonas aeruginosa MTCC 2453 assessed as inhibition of bacterial growth incubated overnight by serial dilution based spectrophotometer; assay type: functional
Bacillus subtilis [24] = test: Antibacterial activity against Bacillus subtilis MTCC 736 assessed as inhibition of bacterial growth incubated overnight by serial dilution based spectrophotometer; assay type: functional
Pseudomonas aeruginosa [25] = test: Bactericidal activity against Pseudomonas aeruginosa MTCC 2453 assessed as inhibition of bacterial growth incubated overnight; assay type: functional
Pseudomonas aeruginosa [26] = test: Antibacterial activity against Pseudomonas aeruginosa MTCC 2453 assessed as diameter of zone of inhibition at 500 ug/ml by agar disk diffusion method; assay type: functional; settings: read-out: DIZ
Bacillus subtilis [27] = test: Bactericidal activity against Bacillus subtilis MTCC 736 assessed as inhibition of bacterial growth incubated overnight; assay type: functional
Staphylococcus aureus [28] = test: Antibacterial activity against Staphylococcus aureus MTCC 902 assessed as inhibition of bacterial growth incubated overnight by serial dilution based spectrophotometer; assay type: functional
Salmonella typhi [29] = test: Antibacterial activity against Salmonella typhi assessed as inhibition of bacterial growth incubated overnight by serial dilution based spectrophotometer; assay type: functional, Salmonella enterica subsp. enterica serovar Typhi; settings: Salmonella enterica
Bacillus subtilis [30] = test: Antibacterial activity against Bacillus subtilis MTCC 736 assessed as diameter of zone of inhibition at 500 ug/ml by agar disk diffusion method; assay type: functional; settings: read-out: DIZ
Staphylococcus aureus [31] = test: Ratio of MBC for antibacterial activity against Staphylococcus aureus MTCC 902 to MIC for bactericidal activity against Staphylococcus aureus MTCC 902; assay type: functional
Escherichia coli [32] = test: Antibacterial activity against Escherichia coli MTCC 443 assessed as inhibition of bacterial growth incubated overnight by serial dilution based spectrophotometer; assay type: functional
Escherichia coli [33] = test: Bactericidal activity against Escherichia coli MTCC 443 assessed as inhibition of bacterial growth incubated overnight; assay type: functional
Acinetobacter baumannii = test: Antibacterial activity against Acinetobacter baumannii assessed as inhibition of bacterial growth; assay type: functional
Staphylococcus aureus [34] = test: Antibacterial activity against Staphylococcus aureus assessed as inhibition of bacterial growth; assay type: functional
Enterococcus faecalis [35] = test: Bactericidal activity against Enterococcus faecalis MTCC 439 assessed as inhibition of bacterial growth incubated overnight; assay type: functional
Enterococcus faecalis [36] = test: Antibacterial activity against Enterococcus faecalis MTCC 439 assessed as diameter of zone of inhibition at 500 ug/ml by agar disk diffusion method; assay type: functional; settings: read-out: DIZ
Escherichia coli [37] = test: Ratio of MBC for antibacterial activity against Escherichia coli MTCC 443 to MIC for bactericidal activity against Escherichia coli MTCC 443; assay type: functional
Salmonella typhi [38] = test: Antibacterial activity against Salmonella typhi assessed as diameter of zone of inhibition at 500 ug/ml by agar disk diffusion method; assay type: functional, Salmonella enterica subsp. enterica serovar Typhi; settings: Salmonella enterica, read-out: DIZ
Bacillus subtilis [39] = test: Ratio of MBC for antibacterial activity against Bacillus subtilis MTCC 736 to MIC for bactericidal activity against Bacillus subtilis MTCC 736; assay type: functional
Salmonella typhi [40] = test: Bactericidal activity against Salmonella typhi assessed as inhibition of bacterial growth incubated overnight; assay type: functional, Salmonella enterica subsp. enterica serovar Typhi; settings: Salmonella enterica
Enterococcus faecalis [41] = test: Ratio of MBC for antibacterial activity against Enterococcus faecalis MTCC 439 to MIC for bactericidal activity against Enterococcus faecalis MTCC 439; assay type: functional
Salmonella typhi [42] = test: Ratio of MBC for antibacterial activity against Salmonella typhi to MIC for bactericidal activity against Salmonella typhi; assay type: functional, Salmonella enterica subsp. enterica serovar Typhi

Row | Structure (SMILES) | zone of inhibition at 500 µg/mL (Staphylococcus aureus [19]) | zone of inhibition at 500 µg/mL (Escherichia coli [20]) | MBC (Staphylococcus aureus [21]) | MIC (Enterococcus faecalis [22]) | MIC (Pseudomonas aeruginosa [23]) | MIC (Bacillus subtilis [24]) | MBC (Pseudomonas aeruginosa [25]) | zone of inhibition at 500 µg/mL (Pseudomonas aeruginosa [26]) | MBC (Bacillus subtilis [27]) | MIC (Staphylococcus aureus [28]) | MIC (Salmonella typhi [29]) | zone of inhibition at 500 µg/mL (Bacillus subtilis [30]) | MIC (Escherichia coli [32]) | MBC (Escherichia coli [33]) | MBC (Enterococcus faecalis [35]) | zone of inhibition at 500 µg/mL (Enterococcus faecalis [36]) | Ratio (Escherichia coli [37]) | zone of inhibition at 500 µg/mL (Salmonella typhi [38]) | MBC (Salmonella typhi [40]) | further results
1 | CC1(C)S[C@@H]2[C@H](NC(=O)[C@H](N)c3ccccc3)C(=O)N2[C@H]1C(=O)O [AMPICILLIN] |  |  |  |  |  |  |  |  |  |  |  |  |  |  |  |  |  |  |  | diameter of the inhibition zone (DIZ) (Escherichia coli [1]): 21 mm; diameter of the inhibition zone (DIZ) (Escherichia coli [2]): 16 mm; diameter of the inhibition zone (DIZ) (Escherichia coli [3]): 20 mm; diameter of the inhibition zone (DIZ) (Escherichia coli [4]): 20 mm; diameter of the inhibition zone (DIZ) (Escherichia coli [5]): 22 mm; diameter of the inhibition zone (DIZ) (Escherichia coli [6]): 24 mm; diameter of the inhibition zone (DIZ) (Escherichia coli [7]): 16 mm; diameter of the inhibition zone (DIZ) (Escherichia coli [8]): 22 mm; diameter of the inhibition zone (DIZ) (Escherichia coli [9]): 18 mm; diameter of the inhibition zone (DIZ) (Escherichia coli [10]): 18 mm; diameter of the inhibition zone (DIZ) (Escherichia coli [11]): 22 mm; diameter of the inhibition zone (DIZ) (Escherichia coli [12]): 21 mm; diameter of the inhibition zone (DIZ) (Escherichia coli [13]): 17 mm; diameter of the inhibition zone (DIZ) (Escherichia coli [14]): 19 mm; diameter of the inhibition zone (DIZ) (Escherichia coli [15]): 14 mm; diameter of the inhibition zone (DIZ) (Escherichia coli [16]): 17 mm; diameter of the inhibition zone (DIZ) (Escherichia coli [17]): 17 mm; diameter of the inhibition zone (DIZ) (Escherichia coli [18]): 18 mm
2 | Cc1cccc2c1NC(=O)/C2=N\CCNc1ccnc2cc(Cl)ccc12 | 11 mm | 11 mm | 256 µg/mL (≈ 702 µM) | > 512 µg/mL | 256 µg/mL (≈ 702 µM) | 256 µg/mL (≈ 702 µM) | > 512 µg/mL | 12 mm | > 512 µg/mL | 256 µg/mL (≈ 702 µM) | > 512 µg/mL | 12 mm | 256 µg/mL (≈ 702 µM) | > 512 µg/mL |  |  |  |  |  | Ratio (Staphylococcus aureus [31]): 1
3 | N/N=C/c1cc(N2CCOCC2)c2cccc(C(F)(F)F)c2n1 |  |  |  |  |  |  |  |  |  |  |  |  |  |  |  |  |  |  |  | MIC (Acinetobacter baumannii): 2 µg/mL (≈ 6.17 µM)
4 | Cc1ccc(N/N=C/c2ccc(CN3CCN(c4ccnc5cc(Cl)ccc45)CC3)cc2)cc1 |  |  |  |  |  |  |  |  |  |  |  |  |  |  |  |  |  |  |  | MIC (Acinetobacter baumannii): 2 µg/mL (≈ 4.26 µM)
5 | CCCCCCCCCCCCOC(=O)c1cc(OCCCCCCCCCCCC)nc2ccccc12 |  |  |  |  |  |  |  |  |  |  |  |  |  |  |  |  |  |  |  | MIC (Staphylococcus aureus [34]): 6.25 µg/mL (≈ 11.9 µM)
6 | O=[N+]([O-])c1ccc(/C=N/CCNc2ccnc3cc(Cl)ccc23)cc1 | 10 mm | 12 mm | > 512 µg/mL | 256 µg/mL (≈ 722 µM) | 512 µg/mL (≈ 1440 µM) | 512 µg/mL (≈ 1440 µM) | > 512 µg/mL | 8 mm | 512 µg/mL (≈ 1440 µM) | 256 µg/mL (≈ 722 µM) | 256 µg/mL (≈ 722 µM) | 8 mm | 256 µg/mL (≈ 722 µM) | 256 µg/mL (≈ 722 µM) | 256 µg/mL (≈ 722 µM) | 9 mm | 1 | 10 mm | 256 µg/mL (≈ 722 µM) | Ratio (Bacillus subtilis [39]): 1; Ratio (Enterococcus faecalis [41]): 1; Ratio (Salmonella typhi [42]): 1
7 | Clc1ccc2c(NCC/N=C/c3ccco3)ccnc2c1 | 10 mm | 9 mm | 256 µg/mL (≈ 854 µM) | 512 µg/mL (≈ 1710 µM) | 512 µg/mL (≈ 1710 µM) | 256 µg/mL (≈ 854 µM) | > 512 µg/mL | 9 mm | 256 µg/mL (≈ 854 µM) | 256 µg/mL (≈ 854 µM) | 512 µg/mL (≈ 1710 µM) | 10 mm | 512 µg/mL (≈ 1710 µM) | 512 µg/mL (≈ 1710 µM) | > 512 µg/mL | 9 mm | 1 | 9 mm | > 512 µg/mL | Ratio (Bacillus subtilis [39]): 1; Ratio (Staphylococcus aureus [31]): 1
8 | CC(NC1=NC(c2cc3cc(OCc4cccc(Cl)c4)ccc3nc2O)N=CN1)c1ccccc1 (centres undefined) |  |  |  |  |  |  |  |  |  |  |  |  |  |  |  |  |  |  |  | MIC (Staphylococcus aureus [34]): 2 µg/mL (≈ 4.12 µM)
9 | Oc1cccc(/C=N/CCNc2ccnc3cc(Cl)ccc23)c1 | 10 mm | 13 mm | > 512 µg/mL | 512 µg/mL (≈ 1570 µM) | > 512 µg/mL | > 512 µg/mL |  | 8 mm |  | 512 µg/mL (≈ 1570 µM) | 256 µg/mL (≈ 786 µM) | 9 mm | 256 µg/mL (≈ 786 µM) | 256 µg/mL (≈ 786 µM) | 512 µg/mL (≈ 1570 µM) | 10 mm | 1 | 10 mm | 256 µg/mL (≈ 786 µM) | Ratio (Enterococcus faecalis [41]): 1; Ratio (Salmonella typhi [42]): 1

Reference: ChEMBL document CHEMBL6078713, “Synthesis and mechanistic studies of 4-aminoquinoline-Isatin molecular hybrids and Schiff's bases as promising antimicrobial agents” (Eur J Med Chem, 2025)
